Columns and labels:
[1] = tested on: GFP+FoxP3+ regulatory T cells (iTregs); assay: RNA sequencing of GFP+FoxP3+ regulatory T cells differentiated with CPI-1205 or DMSO; assay type: cell-based, mouse; conditions: CPI-1205 vs DMSO
From the text: (§1) FIGS. 5A-5C: Naïve T cells from FoxP3enhanced green fluorescent protein (eGFP) C57BL/6 mice that were differentiated into iTregs in the presence or absence of CPI-1205. GFP^+FoxP3^+ regulatory T cells were subsequently used for RNA sequencing analysis. (FIG. 5A) Ingenuity Pathway Analysis of RNA sequencing data of regulatory T cells differentiated in the presence of DMSO or CPI-1205. (FIG. 5B) Differentially expressed genes (DEGs) seen following differentiation of inducible regulatory T cells in presence of CPI-1205 or DMSO. (FIG. 5C) Luminex-based cytokine analysis of culture supernatant from inducible regulatory T cells following differentiation with CPI-1205 or DMSO. 2 tailed student t test was used to determine significance; NS, not significant. **p<0.01.
To understand CPI-1205-mediated molecular changes underlying the loss of suppressive activity of regulatory T cells, naïve murine T cells (CD4^+CD25^low CD44^low CD62^hi) from FoxP3-enhanced green fluorescent protein (eGFP) C57BL/6 mice were differentiated into iTregs in the presence or absence of CPI-1205. Purified GFP^+FoxP3^+ regulatory T cells were subsequently used for RNA sequencing analysis. […] The cytokine levels were subsequently examined in the culture supernatant of the iTregs that were differentiated with and without CPI-1205. […] CPI-1205 can also skew the phenotype of iTregs to pro-inflammatory cytokine producing effector-like T cells. In the study, it was noted that EZH2 inhibition leads to decreased expression of not only FoxP3 but also other critical genes, such as NRP1 and BACH2, which are required for regulatory T cell stability (16-18). CPI-1205 treated regulatory T cells seem to acquire the phenotype of so called “exFoxP3” cells which was previously shown to have an activated memory phenotype (Zhou et al., 2009).
In vitro T cell assays. Human peripheral regulatory T cells were isolated from peripheral blood mononuclear cells by enriching for CD4^+CD127^low CD25^+ cells using the EasySep Human Regulatory T Cell Isolation Kit (STEMCELL Technologies, Cambridge, Mass.). For mouse in vitro regulatory T cell differentiation, CD4^+CD25^low CD44^low CD62L^hinaïve splenic T cells were isolated from C57BL/6 mice using BD FACSAria (BD Biosciences, San Jose, Calif.). The cells were then differentiated in the presence of recombinant murine IL-2 (R&D, 402-ML), tumor growth factor-β (TGF-β, R&D 7666-MB), CPI-1205 or dimethyl sulfoxide (DMSO) and cultured for 6 days.
RNA sequencing. RNA was extracted from peripheral CD4 T cells isolated from patients with metastatic melanoma and from in vitro differentiated GFP^+ regulatory T cells. RNA sequencing reactions were performed by Active Motif (Carlsbad, Calif.) and Ocean Ridge Biosciences (Deerfield, Fla.) using an Illumina HiSeq 50-bp platform. For bioinformatics analysis, the raw reads were aligned to the mm10 reference genome using TopHat2. HTSeq count was used to count the raw reads that were uniquely mapped to each gene. DESeq2 was then applied to normalize the raw read counts and identify the differentially expressed genes between the groups. The beta-uniform mixture model was used to fit the p value distribution for multiple testing adjustments. The lists of differentially expressed genes were then used as input into Ingenuity Pathway Analysis for pathway analysis. RNA-sequencing data were deposited in the NCBI's Gene Expression Omnibus database.

[2] = tested on: inducible regulatory T cells; assay: Luminex-based cytokine analysis of iTreg culture supernatant; assay type: cell-based, mouse; conditions: iTregs differentiated with vs without CPI-1205; FIG. 5C
From the text: as §1
To understand CPI-1205-mediated molecular changes underlying the loss of suppressive activity of regulatory T cells, naïve murine T cells (CD4^+CD25^low CD44^low CD62^hi) from FoxP3-enhanced green fluorescent protein (eGFP) C57BL/6 mice were differentiated into iTregs in the presence or absence of CPI-1205. Purified GFP^+FoxP3^+ regulatory T cells were subsequently used for RNA sequencing analysis. […] The cytokine levels were subsequently examined in the culture supernatant of the iTregs that were differentiated with and without CPI-1205. […]

COc1cc(C)[nH]c(=O)c1CNC(=O)c1c(C)n([C@H](C)C2CCN(CC(F)(F)F)CC2)c2ccccc12 [CPI-1205, N-[(4-methoxy-6-methyl-2-oxo-1H-pyridin-3-yl)methyl]-2-methyl-1-[(1R)-1-[1-(2,2,2-trifluoroethyl)piperidin-4-yl]ethyl]indole-3-carboxamide]
pro-inflammatory pathways (Th-1/Th-2), Ingenuity Pathway Analysis ([1]; FIG. 5A): upregulation
BACH2 expression ([1]; FIG. 5B): decreased
FoxP3 expression ([1]; FIG. 5B): decreased
effector cytokines and chemokines (differentially expressed genes) ([1]; FIG. 5B): increase
neuropilin 1 (NRP1) expression ([1]; FIG. 5B): decreased
pro-inflammatory cytokines in the culture supernatant [2]: significantly increased
